Numbers after ± are expanded uncertainties.
Experiments:
[1] = mn = molality of the nth substance listed, in mol/kg; conditions: 86.5 kPa, Liquid; for speed of sound: Frequency=3 MHz, Sing-around technique in a fixed-path interferometer; for mass density: Vibrating tube method
[2] = refractive index (Na D-line) (dimensionless); mn = molality of the nth substance listed, in mol/kg; conditions: 86.5 kPa, Liquid, Standard Abbe refractometry

CCCCCCCCn1cc[n+](C)c1.[Br-] [1-methyl-3-octylimidazolium bromide] + c1ccsc1
Conditions | mass density, [1] [kg/m3] | refractive index, [2] | speed of sound, [1] [m/s]
288.15 K, m2 = 0 | 1179.37 ± 7.4 | 1.525 ± 0.0012 | 1605.2 ± 3.2
288.15 K, m2 = 0.0087 | 1179.17 ± 7.4 | 1.5248 ± 0.0012 | 1603.7 ± 3.2
288.15 K, m2 = 0.022 | 1178.88 ± 7.4 | 1.5245 ± 0.0012 | 1601.5 ± 3.2
288.15 K, m2 = 0.032 | 1178.66 ± 7.4 | 1.5242 ± 0.0012 | 1599.9 ± 3.2
288.15 K, m2 = 0.0435 | 1178.43 ± 7.4 | 1.524 ± 0.0012 | 1598.3 ± 3.2
288.15 K, m2 = 0.0556 | 1178.18 ± 7.4 | 1.5238 ± 0.0012 | 1596.8 ± 3.2
288.15 K, m2 = 0.0663 | 1177.97 ± 7.4 | 1.5235 ± 0.0012 | 1595.7 ± 3.2
288.15 K, m2 = 0.0821 | 1177.68 ± 7.4 | 1.5232 ± 0.0012 | 1594.3 ± 3.2
288.15 K, m2 = 0.0923 | 1177.49 ± 7.4 | 1.5229 ± 0.0012 | 1593.4 ± 3.2
288.15 K, m2 = 0.107 | 1177.22 ± 7.4 | 1.5226 ± 0.0012 | 1592.3 ± 3.2
288.15 K, m2 = 0.1464 | 1176.57 ± 7.4 | 1.5221 ± 0.0012 | 1590.2 ± 3.2
288.15 K, m2 = 0.1765 | 1176.08 ± 7.4 | 1.5216 ± 0.0012 | 1588.8 ± 3.2
293.15 K, m2 = 0 | 1176.17 ± 7.4 | 1.5236 ± 0.0012 | 1581.9 ± 3.2
293.15 K, m2 = 0.0087 | 1175.97 ± 7.4 | 1.5233 ± 0.0012 | 1581 ± 3.2
293.15 K, m2 = 0.022 | 1175.68 ± 7.4 | 1.5231 ± 0.0012 | 1579.5 ± 3.2
293.15 K, m2 = 0.032 | 1175.46 ± 7.4 | 1.5228 ± 0.0012 | 1578.6 ± 3.2
293.15 K, m2 = 0.0435 | 1175.23 ± 7.4 | 1.5226 ± 0.0012 | 1577.6 ± 3.2
293.15 K, m2 = 0.0556 | 1174.97 ± 7.4 | 1.5223 ± 0.0012 | 1576.5 ± 3.2
293.15 K, m2 = 0.0663 | 1174.75 ± 7.4 | 1.522 ± 0.0012 | 1575.7 ± 3.2
293.15 K, m2 = 0.0821 | 1174.47 ± 7.4 | 1.5217 ± 0.0012 | 1574.6 ± 3.2
293.15 K, m2 = 0.0923 | 1174.27 ± 7.4 | 1.5214 ± 0.0012 | 1573.8 ± 3.2
293.15 K, m2 = 0.107 | 1174.01 ± 7.4 | 1.5211 ± 0.0012 | 1572.9 ± 3.2
293.15 K, m2 = 0.1464 | 1173.34 ± 7.4 | 1.5205 ± 0.0012 | 1571.1 ± 3.2
293.15 K, m2 = 0.1765 | 1172.85 ± 7.4 | 1.52 ± 0.0012 | 1570.2 ± 3.2
298.15 K, m2 = 0 | 1172.98 ± 7.4 | 1.5221 ± 0.0012 | 1561.9 ± 3.2
298.15 K, m2 = 0.0087 | 1172.78 ± 7.4 | 1.5219 ± 0.0012 | 1561.3 ± 3.2
298.15 K, m2 = 0.022 | 1172.48 ± 7.4 | 1.5216 ± 0.0012 | 1560.3 ± 3.2
298.15 K, m2 = 0.032 | 1172.27 ± 7.4 | 1.5213 ± 0.0012 | 1559.7 ± 3.2
298.15 K, m2 = 0.0435 | 1172.02 ± 7.4 | 1.521 ± 0.0012 | 1558.9 ± 3.2
298.15 K, m2 = 0.0556 | 1171.78 ± 7.4 | 1.5207 ± 0.0012 | 1558.2 ± 3.2
298.15 K, m2 = 0.0663 | 1171.57 ± 7.4 | 1.5203 ± 0.0012 | 1557.5 ± 3.2
298.15 K, m2 = 0.0821 | 1171.26 ± 7.4 | 1.52 ± 0.0012 | 1556.5 ± 3.2
298.15 K, m2 = 0.0923 | 1171.07 ± 7.4 | 1.5197 ± 0.0012 | 1555.9 ± 3.2
298.15 K, m2 = 0.107 | 1170.8 ± 7.4 | 1.5193 ± 0.0012 | 1555.1 ± 3.2
298.15 K, m2 = 0.1464 | 1170.16 ± 7.4 | 1.5187 ± 0.0012 | 1553.5 ± 3.2
298.15 K, m2 = 0.1765 | 1169.7 ± 7.4 | 1.5181 ± 0.0012 | 1552.3 ± 3.2
303.15 K, m2 = 0 | 1169.86 ± 7.4 | 1.5206 ± 0.0012 | 1542.8 ± 3.2
303.15 K, m2 = 0.0087 | 1169.65 ± 7.4 | 1.5205 ± 0.0012 | 1542.3 ± 3.2
303.15 K, m2 = 0.022 | 1169.35 ± 7.4 | 1.5202 ± 0.0012 | 1541.6 ± 3.2
303.15 K, m2 = 0.032 | 1169.13 ± 7.4 | 1.5199 ± 0.0012 | 1541.1 ± 3.2
303.15 K, m2 = 0.0435 | 1168.88 ± 7.4 | 1.5196 ± 0.0012 | 1540.7 ± 3.2
303.15 K, m2 = 0.0556 | 1168.64 ± 7.4 | 1.5192 ± 0.0012 | 1540.1 ± 3.2
303.15 K, m2 = 0.0663 | 1168.42 ± 7.4 | 1.5189 ± 0.0012 | 1539.6 ± 3.2
303.15 K, m2 = 0.0821 | 1168.12 ± 7.4 | 1.5185 ± 0.0012 | 1539.1 ± 3.2
303.15 K, m2 = 0.0923 | 1167.93 ± 7.4 | 1.5182 ± 0.0012 | 1538.5 ± 3.2
303.15 K, m2 = 0.107 | 1167.67 ± 7.4 | 1.5179 ± 0.0012 | 1538 ± 3.2
303.15 K, m2 = 0.1464 | 1167.05 ± 7.4 | 1.5171 ± 0.0012 | 1536.6 ± 3.2
303.15 K, m2 = 0.1765 | 1166.59 ± 7.4 | 1.5166 ± 0.0012 | 1535.7 ± 3.2

Reference: the NIST ThermoML archive (doi:10.1016/j.jct.2015.12.031)
